This is an account of results in patent publication US20230218566A1, “Composition and Method for Treating Chronic Pain” (Zelira Therapeutics Operations Pty Ltd, priority 2020, published 2023).

A short description of this series: Pharmacokinetics of THC and CBD after oral MC formulation (Example 3). To be noted: for Tmax / AUC(0-t) / Cmax / half-life: human, plasma; for dose response of Cmax and AUC0-8 with increasing doses: oral doses 2.5 to 12.5 mg.
The mark [1] stands for this setting: high fat meal 30 minutes before 2.5 mg dose versus fasted.
Setting [2] is: oral, delay of Tmax by high fat meal, high fat meal 30 minutes before 2.5 mg dose versus fasted.
[3] abbreviates: po, AUC0-8, 2.5 mg: single oral dose 2.5 mg THC/2.5 mg CBD after 12 hour fast (day 1).
[4] abbreviates: po, AUC0-8, 5 mg: single oral dose 5 mg THC/5 mg CBD.
The mark [5] stands for this setting: po, AUC0-8, 7.5 mg: single oral dose 7.5 mg THC/7.5 mg CBD.
Where [6] appears, read: po, 2.5 mg fed: single oral dose 2.5 mg THC/2.5 mg CBD 30 minutes after high fat meal (day 8).
Where [7] appears, read: po, 2.5 mg: single oral dose 2.5 mg THC/2.5 mg CBD after 12 hour fast (day 1).
Where [8] appears, read: po, 5 mg: single oral dose 5 mg THC/5 mg CBD.
The mark [9] stands for this setting: po, 7.5 mg: single oral dose 7.5 mg THC/7.5 mg CBD.
[10] abbreviates: po, Tmax, 2.5 mg fed: single oral dose 2.5 mg THC/2.5 mg CBD 30 minutes after high fat meal (day 8).
Setting [11] is: po, Tmax, 2.5 mg: single oral dose 2.5 mg THC/2.5 mg CBD after 12 hour fast (day 1).
Where [12] appears, read: po, Tmax, 5 mg: single oral dose 5 mg THC/5 mg CBD.
Setting [13] is: po, Tmax, 7.5 mg: single oral dose 7.5 mg THC/7.5 mg CBD.
Where [14] appears, read: po, t½ (did not change with increasing dose), across doses 2.5 to 12.5 mg.
[15] abbreviates: po, t½, 2.5 mg fed: single oral dose 2.5 mg THC/2.5 mg CBD 30 minutes after high fat meal (day 8).
Setting [16] is: po, t½, 2.5 mg: single oral dose 2.5 mg THC/2.5 mg CBD after 12 hour fast (day 1).
[17] abbreviates: po, t½, 5 mg: single oral dose 5 mg THC/5 mg CBD.
Where [18] appears, read: po, t½, 7.5 mg: single oral dose 7.5 mg THC/7.5 mg CBD.

For orientation: Tmax means the time from dosing to the highest level. In general, AUC(0-t) refers to the area under the concentration-time curve up to a stated or last time point. A lower AUC(0-t) goes with less exposure. Broadly, the Cmax is the maximum level reached in the sampled fluid or tissue. As usually defined, the half-life is the time needed for the level to fall by half in the phase considered. Higher therefore signals slow loss. `C=C(C)[C@@H]1CCC(C)=C[C@H]1c1c(O)cc(CCCCC)cc1O` [CBD, cannabidiol]: the “dose response of Cmax and AUC0-8 with increasing doses” value is recorded as “linear dose response relationship”. Besides, the “effect of high fat meal on Cmax and AUC0-8” value under setting [1] is listed as “significantly increased”. For the same compound, under setting [2], the Tmax is not below 1 h. The same compound yielded an AUC(0-t) (po, AUC0-8, 2.5 mg fed: single oral dose 2.5 mg THC/2.5 mg CBD 30 minutes after high fat meal (day 8)) of 3.67 ng·h/mL. Under setting [3], this compound registered an exposure AUC(0-t) of 1.76 ± 0.84 ng·h/mL. Further, the AUC(0-t) under setting [4] is 5.09 ± 1.8 ng·h/mL. Under setting [5], this compound yielded an AUC(0-t) of 7.47 ± 2.95 ng·h/mL. Also, under setting [6], the Cmax is 0.99 ± 0.45 ng/mL. This compound showed a Cmax under setting [7] of 0.62 ± 0.19 ng/mL. Under setting [8], this compound came in with a Cmax of 1.51 ± 0.55 ng/mL. The concentration under setting [9] peaked (Cmax) at 2.26 ± 0.95 ng/mL. Also, under setting [10], the Tmax came to 2.78 h. Also, under setting [11], the Tmax came to 1.83 ± 1 h. Under setting [12], the Tmax came to 1.75 ± 1.04 h. Also, under setting [13], the Tmax came to 1.64 ± 1.18 h. The same compound gave a half-life under setting [14] of 3.6 h. This compound gave a half-life under setting [15] of 2.95 ± 0.66 h. This compound gave a half-life under setting [16] of 4.25 ± 0.54 h. The compound also had a half-life under setting [17] of 4.54 ± 2.41 h. Under setting [18], this compound gave a half-life of 3.47 ± 0.86 h.

Consider `CCCCCc1cc(O)c2c(c1)OC(C)(C)[C@@H]1CCC(C)=C[C@@H]21` [THC, Δ^9-tetrahydrocannabinol], for which the “dose response of Cmax and AUC0-8 with increasing doses” value is on record as “linear dose response relationship”. Also, the AUC0-8 (2.5 mg fed: single oral dose 2.5 mg THC/2.5 mg CBD 30 minutes after high fat meal (day 8)) was 5.86 ± 2.07 (9) ng/mL*h. Moreover, the “effect of high fat meal on Cmax and AUC0-8” value under setting [1] was “significantly increased”. For the same compound, the Tmax under setting [2] was not below 1 h. In addition, under setting [3], the AUC(0-t) stood at 2 ± 1.38 ng·h/mL. The AUC(0-t) under setting [4] worked out at 6.04 ± 2.07 ng·h/mL. Moreover, under setting [5], the AUC(0-t) came to 10.6 ± 3.84 ng·h/mL. The highest level under setting [6] (Cmax) was 1.52 ± 0.55 ng/mL. For the same compound, under setting [7], the concentration peaked (Cmax) at 0.83 ± 0.29 ng/mL. Also, the highest level under setting [8] (Cmax) was 2.56 ± 1.7 ng/mL. In addition, under setting [9], the highest level (Cmax) was 3.84 ± 1.62 ng/mL. Also, the Tmax under setting [10] worked out at 2.78 ± 1.2 h. For the same compound, the Tmax under setting [11] came out at 1.67 ± 1.09 h. Moreover, under setting [12], the Tmax worked out at 2.06 ± 1.32 h. The Tmax under setting [13] came out at 1.36 ± 0.63 h. Besides, the half-life under setting [14] was 2.5 h. Moreover, the half-life under setting [15] was 2.63 ± 0.43 h. Under setting [16], this compound gave a half-life of 2.6 ± 0.53 h. Under setting [17], this compound had a half-life of 2.47 ± 0.88 h. This compound gave a half-life under setting [18] of 2.41 ± 0.62 h.
